Legend:
[1] = test system: Puccinia recondita f. Sp. Tritici; assay: Fungicidal activity against Puccinia recondita f. sp. tritici / wheat / leaf disc preventative (brown rust); assay type: in vivo; conditions: foliar, 200 ppm in the applied formulation, wheat leaf segments cv. Kanzler, preventative (inoculated 1 day after application), assessed 7 to 9 days after application, compared to untreated, read-out: disease control
Experimental: Leaf disks or leaf segments of various plant species are cut from plants grown in a greenhouse. The cut leaf disks or segments are placed in multiwell plates (24-well format) onto water agar. The leaf disks are sprayed with a test solution before (preventative) or after (curative) inoculation. Compounds to be tested are prepared as DMSO solutions (max. 10 mg/ml) which are diluted to the appropriate concentration with 0.025% Tween20 just before spraying. The inoculated leaf disks or segments are incubated under defined conditions (temperature, relative humidity, light, etc.) according to the respective test system. A single evaluation of disease level is carried out 3 to 14 days after inoculation, depending on the pathosystem. Percent disease control relative to the untreated check leaf disks or segments is then calculated. Example 1: Fungicidal Activity Against Puccinia recondita f. Sp. Tritici/Wheat/Leaf Disc Preventative (Brown Rust) Wheat leaf segments cv. Kanzler were placed on agar in multiwell plates (24-well format) and sprayed with the formulated test compound diluted in water. The leaf disks were inoculated with a spore suspension of the fungus 1 day after application. The inoculated leaf segments were incubated at 19° C. and 75% relative humidity (rh) under a light regime of 12 hours light/12 hours darkness in a climate cabinet and the activity of a compound was assessed as percent disease control compared to untreated when an appropriate level of disease damage appears in untreated check leaf segments (7 to 9 days after application). The following compounds at 200 ppm in the applied formulation give at least 80% disease control in this test when compared to untreated control leaf disks under the same conditions, which show extensive disease development.

[2] = test system: Puccinia recondita f. Sp. Tritici; assay: Fungicidal activity against Puccinia recondita f. sp. tritici / wheat / leaf disc curative (brown rust); assay type: in vivo; conditions: foliar, 200 ppm in the applied formulation, wheat leaf segments cv. Kanzler, curative (applied 1 day after inoculation), assessed 6 to 8 days after application, compared to untreated, read-out: disease control
Experimental: Leaf disks or leaf segments of various plant species are cut from plants grown in a greenhouse. The cut leaf disks or segments are placed in multiwell plates (24-well format) onto water agar. The leaf disks are sprayed with a test solution before (preventative) or after (curative) inoculation. Compounds to be tested are prepared as DMSO solutions (max. 10 mg/ml) which are diluted to the appropriate concentration with 0.025% Tween20 just before spraying. The inoculated leaf disks or segments are incubated under defined conditions (temperature, relative humidity, light, etc.) according to the respective test system. A single evaluation of disease level is carried out 3 to 14 days after inoculation, depending on the pathosystem. Percent disease control relative to the untreated check leaf disks or segments is then calculated. Example 2: Fungicidal Activity Against Puccinia recondita f. Sp. Tritici/Wheat/Leaf Disc Curative (Brown Rust) Wheat leaf segments cv. Kanzler are placed on agar in multiwell plates (24-well format). The leaf segments are then inoculated with a spore suspension of the fungus. Plates were stored in darkness at 19° C. and 75% relative humidity. The formulated test compound diluted in water was applied 1 day after inoculation. The leaf segments were incubated at 19° C. and 75% relative humidity under a light regime of 12 hours light/12 hours darkness in a climate cabinet and the activity of a compound was assessed as percent disease control compared to untreated when an appropriate level of disease damage appears in untreated check leaf segments (6 to 8 days after application). The following compounds at 200 ppm in the applied formulation give at least 80% disease control in this test when compared to untreated control leaf disks under the same conditions, which show extensive disease development.

Uromyces viciae-fabael = assay: Fungicidal activity against Uromyces viciae-fabae / field bean / leaf disc preventative (faba-bean rust); assay type: in vivo; conditions: foliar, 288 h, 100 ppm in the applied formulation, field bean leaf discs, preventative (inoculated two hours after application), assessed 12 days after application, compared to untreated, read-out: disease control
Experimental: Leaf disks or leaf segments of various plant species are cut from plants grown in a greenhouse. The cut leaf disks or segments are placed in multiwell plates (24-well format) onto water agar. The leaf disks are sprayed with a test solution before (preventative) or after (curative) inoculation. Compounds to be tested are prepared as DMSO solutions (max. 10 mg/ml) which are diluted to the appropriate concentration with 0.025% Tween20 just before spraying. The inoculated leaf disks or segments are incubated under defined conditions (temperature, relative humidity, light, etc.) according to the respective test system. A single evaluation of disease level is carried out 3 to 14 days after inoculation, depending on the pathosystem. Percent disease control relative to the untreated check leaf disks or segments is then calculated. Example 5: Fungicidal Activity Against Uromyces viciae-fabael Field Bean/Leaf Disc Preventative (Faba-Bean Rust) Field bean leaf discs are placed on water agar in multiwell plates (96-well format) and 10 μl of the formulated test compound diluted in acetone and a spreader pipetted onto the leaf disc. Two hours after application leaf discs are inoculated by spraying a spore suspension on the lower leaf surface. The leaf discs are incubated in a climate cabinet at 22° C. with 18 hour day and 70% relative humidity. The activity of a compound is assessed as percent disease control compared to untreated when an appropriate level of disease damage appears in untreated check leaf disks (12 days after application). The following compounds at 100 ppm in the applied formulation give at least 80% disease control in this test when compared to untreated control leaf discs under the same conditions, which show extensive disease development.

Phakopsora pachyrhizi = assay: Fungicidal activity against Phakopsora pachyrhizi / soybean / leaf disc preventative (Asian soybean rust); assay type: in vivo; conditions: foliar, 200 ppm in the applied formulation, soybean leaf disks, preventative (inoculated one day after application), assessed 12 to 14 days after application, compared to untreated, read-out: disease control
Experimental: Leaf disks or leaf segments of various plant species are cut from plants grown in a greenhouse. The cut leaf disks or segments are placed in multiwell plates (24-well format) onto water agar. The leaf disks are sprayed with a test solution before (preventative) or after (curative) inoculation. Compounds to be tested are prepared as DMSO solutions (max. 10 mg/ml) which are diluted to the appropriate concentration with 0.025% Tween20 just before spraying. The inoculated leaf disks or segments are incubated under defined conditions (temperature, relative humidity, light, etc.) according to the respective test system. A single evaluation of disease level is carried out 3 to 14 days after inoculation, depending on the pathosystem. Percent disease control relative to the untreated check leaf disks or segments is then calculated. Example 3: Fungicidal Activity Against Phakopsora pachyrhizi/Soybean/Leaf Disc Preventative (Asian Soybean Rust) Soybean leaf disks are placed on water agar in multiwell plates (24-well format) and sprayed with the formulated test compound diluted in water. One day after application leaf discs are inoculated by spraying a spore suspension on the lower leaf surface. After an incubation period in a climate cabinet of 24-36 hours in darkness at 20° C. and 75% rh leaf disc are kept at 20° C. with 12 h light/day and 75% rh. The activity of a compound is assessed as percent disease control compared to untreated when an appropriate level of disease damage appears in untreated check leaf disks (12 to 14 days after application). The following compounds at 200 ppm in the applied formulation give at least 80% disease control in this test when compared to untreated control leaf disks under the same conditions, which show extensive disease development.

[3] = test system: Glomerella lagenarium (Colletotrichum lagenarium); assay: Fungicidal activity against Glomerella lagenarium (Colletotrichum lagenarium) liquid culture / cucumber / preventative (anthracnose); assay type: cell-based; conditions: Colletotrichum orbiculare; 20 ppm in the applied formulation; liquid culture in PDB, 24° C.; inhibition of growth measured photometrically 3 to 4 days after application; compared to untreated; read-out: disease control
Experimental: Mycelia fragments or conidia suspensions of a fungus prepared either freshly from liquid cultures of the fungus or from cryogenic storage, are directly mixed into nutrient broth. DMSO solutions of the test compound (max. 10 mg/ml) are diluted with 0.025% Tween20 by a factor of 50 and 10 μl of this solution is pipetted into a microtiter plate (96-well format). The nutrient broth containing the fungal spores/mycelia fragments is then added to give an end concentration of the tested compound. The test plates are incubated in the dark at 24° C. and 96% relative humidity. The inhibition of fungal growth is determined photometrically after 2 to 7 days, depending on the pathosystem, and percent antifungal activity relative to the untreated check is calculated. Example 4: Fungicidal Activity Against Glomerella lagenarium (Colletotrichum lagenarium) Liquid Culture/Cucumber/Preventative (Anthracnose) Conidia of the fungus from cryogenic storage are directly mixed into nutrient broth (PDB—potato dextrose broth). After placing a (DMSO) solution of test compound into a microtiter plate (96-well format), the nutrient broth containing the fungal spores is added. The test plates are incubated at 24° C. and the inhibition of growth is measured photometrically 3 to 4 days after application. The following compounds at 20 ppm in the applied formulation give at least 80% disease control in this test when compared to untreated control under the same conditions, which show extensive disease development.

CC(C)(CS(C)(=O)=O)NC(=O)c1ccc(-c2noc(C(F)(F)F)n2)c(F)c1 [Compound 1.22, N-(1,1-dimethyl-2-methylsulfonyl-ethyl)-3-fluoro-4-[5-(trifluoromethyl)-1,2,4-oxadiazol-3-yl]benzamide]
≥ 80%: pest or weed control at 200 ppm [1] | pest or weed control at 200 ppm [2] | pest or weed control at 100 ppm (Uromyces viciae-fabael)

O=C(NC1CCc2ccccc21)c1ccc(-c2noc(C(F)(F)F)n2)c(F)c1 (centres unmarked) [Compound 1.15, 3-fluoro-N-indan-1-yl-4-[5-(trifluoromethyl)-1,2,4-oxadiazol-3-yl]benzamide]
≥ 80%: pest or weed control at 200 ppm [1] | pest or weed control at 200 ppm (Phakopsora pachyrhizi) | pest or weed control at 100 ppm (Uromyces viciae-fabael)

COc1ccc2[nH]cc(CCNC(=O)c3ccc(-c4noc(C(F)(F)F)n4)c(F)c3)c2c1 [Compound 1.4, 3-fluoro-N-[2-(5-methoxy-1H-indol-3-yl)ethyl]-4-[5-(trifluoromethyl)-1,2,4-oxadiazol-3-yl]benzamide]
≥ 80%: pest or weed control at 200 ppm [1] | pest or weed control at 200 ppm (Phakopsora pachyrhizi) | inhibition of growth at 20 ppm [3] | pest or weed control at 100 ppm (Uromyces viciae-fabael)

CSCCCNC(=O)c1ccc(-c2noc(C(F)(F)F)n2)c(F)c1 [Compound 1.6, 3-fluoro-N-(3-methylsulfanyl-propyl)-4-[5-(trifluoromethyl)-1,2,4-oxadiazol-3-yl]benzamide]
≥ 80%: pest or weed control at 200 ppm [1] | pest or weed control at 200 ppm [2] | pest or weed control at 100 ppm (Uromyces viciae-fabael)

O=C(NCCSCc1ccc(Cl)nc1)c1ccc(-c2noc(C(F)(F)F)n2)c(F)c1 [Compound 1.10, N-[2-[(6-chloro-3-pyridyl)methyl-sulfanyl]ethyl]-3-fluoro-4-[5-(trifluoromethyl)-1,2,4-oxadiazol-3-yl]benzamide]
≥ 80%: pest or weed control at 200 ppm [1] | pest or weed control at 200 ppm (Phakopsora pachyrhizi) | inhibition of growth at 20 ppm [3] | pest or weed control at 100 ppm (Uromyces viciae-fabael)

Cc1ccc(C)c(CNC(=O)c2ccc(-c3noc(C(F)(F)F)n3)c(F)c2)c1 [Compound 1.3, N-[(2,5-dimethyl-phenyl)methyl]-3-fluoro-4-[5-(trifluoromethyl)-1,2,4-oxadiazol-3-yl]benzamide]
≥ 80%: pest or weed control at 200 ppm [1] | pest or weed control at 200 ppm (Phakopsora pachyrhizi) | pest or weed control at 100 ppm (Uromyces viciae-fabael)

O=C(NCC1CC(F)(F)C1(F)F)c1ccc(-c2noc(C(F)(F)F)n2)c(F)c1 (centres unmarked) [Compound 1.23, 3-fluoro-N-[(2,2,3,3-tetrafluoro-cyclobutyl)methyl]-4-[5-(trifluoromethyl)-1,2,4-oxadiazol-3-yl]benzamide]
≥ 80%: pest or weed control at 200 ppm [1] | pest or weed control at 200 ppm (Phakopsora pachyrhizi) | inhibition of growth at 20 ppm [3] | pest or weed control at 100 ppm (Uromyces viciae-fabael)

COC(=O)C1(NC(=O)c2ccc(-c3noc(C(F)(F)F)n3)c(F)c2)CCN(OC)CC1 [Compound 1.13, methyl 4-[[3-fluoro-4-[5-(trifluoromethyl)-1,2,4-oxadiazol-3-yl]benzoyl]amino]-1-methoxy-piperidine-4-carboxylate]
≥ 80%: pest or weed control at 200 ppm [1] | pest or weed control at 200 ppm [2] | pest or weed control at 100 ppm (Uromyces viciae-fabael)

C#CC1(NC(=O)c2ccc(-c3noc(C(F)(F)F)n3)c(F)c2)CCCCC1 [Compound 1.8, N-(1-ethynylcyclohexyl)-3-fluoro-4-[5-(trifluoromethyl)-1,2,4-oxadiazol-3-yl]benzamide]
≥ 80%: pest or weed control at 200 ppm [1] | pest or weed control at 200 ppm (Phakopsora pachyrhizi) | inhibition of growth at 20 ppm [3] | pest or weed control at 100 ppm (Uromyces viciae-fabael)

CC(C)CC(C)NC(=O)c1ccc(-c2noc(C(F)(F)F)n2)c(F)c1 (centres unmarked) [Compound 1.38, N-(1,3-dimethylbutyl)-3-fluoro-4-[5-(trifluoromethyl)-1,2,4-oxadiazol-3-yl]benzamide]
≥ 80%: pest or weed control at 200 ppm [1] | pest or weed control at 200 ppm (Phakopsora pachyrhizi) | inhibition of growth at 20 ppm [3] | pest or weed control at 100 ppm (Uromyces viciae-fabael)

Source: patent US10757941B2, “Microbiocidal oxadiazole derivatives” (SYNGENTA PARTICIPATIONS AG, priority 2016, dated 2020)
